Values of other authors, collected in US12377071B2, “Methods of treating conditions related to the S1P1 receptor” (Arena Pharmaceuticals, Inc., priority 2015, dated 2025).

Conditions: clinical trials; cited from earlier work

For `CCCCCCCCc1ccc(CCC(N)(CO)CO)cc1` [FTY720, fingolimod], the Adverse event is given as “transient asymptomatic bradycardia”.
